Laboratory results from patent publication US12466826B2, “3-benzoyl-1H-pyrrolo[2,3-b]pyridine derivatives as MKK4 inhibitors for treating liver diseases” (HepaRegeniX GmbH, priority 2020, dated 2025).

Assays:
Format in all cases: biochemical
JNK1 = target: T1, JNK1 (Homo sapiens, UniProt P45983); experiment: 33PanQinase kinase assay, selectivity against JNK1; conditions: ratio IC50 (JNK1)/IC50 (MKK4)
T1 construct: purchased ProQinase GmbH, Freiburg, Germany (assay service)
Method: (§1) The kinase activities of the compounds of the invention were measured using the 33PanQinase® Assay Service provided by ProQinase GmbH, Freiburg, Germany. Details of the assay conditions are disclosed on the website of ProQinase (https://www.proqinase.com/products-services-biochemical-assay-services/kinase-assays).
(§2) In brief, all kinase assays were performed in 96-well FlashPlates™ from PerkinElmer (Boston, MA, USA) in a 50 μl reaction volume. The reaction cocktail was pipetted in four steps in the following order: • 20 μl of assay buffer (standard buffer) • 5 μl of ATP solution (in H2O) • 5 μl of test compound (in 10% DMSO) • 20 μl enzyme/substrate mix
(§3) The assay for all protein kinases contained 70 mM HEPES-NaOH pH7.5, 3 mM MgCl2, 3 mM MnCl2, 3 μM Na-orthovanadate, 1.2 mM DTT, 50 μg/ml PEG20000, ATP (variable concentrations, corresponding to the apparent ATP-Km of the respective kinase), [γ-^33P]-ATP (approx. […] per well), protein kinase and substrate.
(§4) The reaction cocktails were incubated at 30° C. for 60 minutes. The reaction is stopped with 50 μl of 2% (v/v) H3PO4, plates were aspirated and washed two times with 200 μl 0.9% (w/v) NaCl. Incorporation of ^33Pi was determined with a microplate scintillation counter (Microbeta, Wallac).
(§5) All assays were performed with a BeckmanCoulter/SAGIAN™ Core System.
(§6) In case of single concentration assays, the potency of the test compound is expressed as % residual activity. For determination of IC50-values, serial dilutions in the final concentration range between 100 μM and 3 nM (10 concentrations) were tested. The fitting model for the IC50 determinations was “Sigmoidal response (variable slope)” with parameters “top” fixed at 100% and “bottom” at 0%. The fitting method used was a least-squares fit.
(§7) Selectivity of test compounds against BRaf, JNK1 and MKK7, altogether denominated as off-targets was calculated by the ratio of IC50 (off-target)/IC50 (MKK4) and categorized as follows: […]

MKK7 = target: T2, MKK7 (Homo sapiens, UniProt O14733); experiment: 33PanQinase kinase assay, selectivity against MKK7; conditions: ratio IC50 (MKK7)/IC50 (MKK4)
T2 construct: purchased ProQinase GmbH, Freiburg, Germany (assay service)
T2 sequence (O14733 1-419): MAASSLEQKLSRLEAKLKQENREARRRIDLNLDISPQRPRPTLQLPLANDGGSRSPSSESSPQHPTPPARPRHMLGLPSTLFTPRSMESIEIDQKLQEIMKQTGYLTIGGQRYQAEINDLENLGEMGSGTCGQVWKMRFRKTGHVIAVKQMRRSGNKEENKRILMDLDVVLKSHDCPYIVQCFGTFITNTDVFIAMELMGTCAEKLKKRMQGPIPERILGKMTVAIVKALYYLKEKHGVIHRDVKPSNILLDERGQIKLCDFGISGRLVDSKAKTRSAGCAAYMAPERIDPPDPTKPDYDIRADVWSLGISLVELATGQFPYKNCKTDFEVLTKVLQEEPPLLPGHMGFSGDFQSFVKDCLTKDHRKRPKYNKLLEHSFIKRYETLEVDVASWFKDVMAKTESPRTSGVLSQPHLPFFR
Method: as §1, §2, §3, §4, §5, §6, §7

MKK4 = target: T3, MKK4 (Homo sapiens, UniProt P45985); experiment: 33PanQinase kinase assay, MKK4 potency; conditions: based on inhibition of enzyme activity at a single concentration or on IC50-values
T3 construct: purchased ProQinase GmbH, Freiburg, Germany (assay service)
T3 sequence (P45985 1-399): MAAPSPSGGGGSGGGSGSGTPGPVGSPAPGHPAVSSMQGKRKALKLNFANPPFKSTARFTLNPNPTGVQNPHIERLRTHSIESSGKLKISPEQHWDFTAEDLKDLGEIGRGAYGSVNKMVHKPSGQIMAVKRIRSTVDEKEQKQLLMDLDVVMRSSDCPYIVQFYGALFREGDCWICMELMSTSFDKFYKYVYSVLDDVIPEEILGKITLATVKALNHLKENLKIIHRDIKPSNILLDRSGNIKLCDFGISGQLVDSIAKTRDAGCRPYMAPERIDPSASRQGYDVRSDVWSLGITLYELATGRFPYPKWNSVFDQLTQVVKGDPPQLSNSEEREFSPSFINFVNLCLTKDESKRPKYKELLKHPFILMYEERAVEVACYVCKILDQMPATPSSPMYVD
Method: as §1, §2, §3, §4, §5, §6

BRaf = target: T4, BRaf (Homo sapiens, UniProt P15056); experiment: 33PanQinase kinase assay, selectivity against BRaf; conditions: ratio IC50 (BRaf)/IC50 (MKK4)
T4 construct: purchased ProQinase GmbH, Freiburg, Germany (assay service)
T4 sequence (P15056 whole entry): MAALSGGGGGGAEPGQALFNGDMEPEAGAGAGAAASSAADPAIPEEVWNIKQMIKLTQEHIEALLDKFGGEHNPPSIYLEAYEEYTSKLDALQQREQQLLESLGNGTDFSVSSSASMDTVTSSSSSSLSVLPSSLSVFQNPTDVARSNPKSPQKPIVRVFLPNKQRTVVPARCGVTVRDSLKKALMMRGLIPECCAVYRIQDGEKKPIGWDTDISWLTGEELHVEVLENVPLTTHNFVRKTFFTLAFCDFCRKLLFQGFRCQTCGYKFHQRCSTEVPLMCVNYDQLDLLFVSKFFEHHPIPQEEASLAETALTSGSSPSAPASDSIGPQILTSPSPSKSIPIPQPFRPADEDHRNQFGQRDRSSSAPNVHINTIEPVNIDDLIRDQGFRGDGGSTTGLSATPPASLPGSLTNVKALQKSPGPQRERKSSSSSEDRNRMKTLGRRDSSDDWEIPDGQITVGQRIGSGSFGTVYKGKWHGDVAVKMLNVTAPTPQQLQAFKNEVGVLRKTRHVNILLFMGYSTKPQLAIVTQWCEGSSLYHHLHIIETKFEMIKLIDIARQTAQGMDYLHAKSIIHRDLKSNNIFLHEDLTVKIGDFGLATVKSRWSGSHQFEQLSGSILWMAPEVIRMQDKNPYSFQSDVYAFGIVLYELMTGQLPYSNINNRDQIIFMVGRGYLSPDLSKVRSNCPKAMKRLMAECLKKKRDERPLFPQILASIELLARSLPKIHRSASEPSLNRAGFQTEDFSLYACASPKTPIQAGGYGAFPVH
Method: as §1, §2, §3, §4, §5, §6, §7

T1 sequence (P45983 whole entry): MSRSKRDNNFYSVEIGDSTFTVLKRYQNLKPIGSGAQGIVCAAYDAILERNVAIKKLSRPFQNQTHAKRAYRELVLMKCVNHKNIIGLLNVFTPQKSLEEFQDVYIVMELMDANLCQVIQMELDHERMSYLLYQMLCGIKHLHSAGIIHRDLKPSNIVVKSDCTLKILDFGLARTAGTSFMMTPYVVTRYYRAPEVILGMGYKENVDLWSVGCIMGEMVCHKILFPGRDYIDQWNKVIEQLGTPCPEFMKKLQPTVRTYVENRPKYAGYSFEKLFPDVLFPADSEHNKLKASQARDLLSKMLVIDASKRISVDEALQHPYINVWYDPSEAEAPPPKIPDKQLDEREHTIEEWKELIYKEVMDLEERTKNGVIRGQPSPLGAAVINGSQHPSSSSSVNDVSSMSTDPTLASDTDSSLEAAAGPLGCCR

| SMILES | Selectivity JNK1, IC50(off-target)/IC50(MKK4) (JNK1) | Selectivity MKK7, IC50(off-target)/IC50(MKK4) (MKK7) | IC50 (MKK4) [nM] | Selectivity BRaf, IC50(off-target)/IC50(MKK4) (BRaf) |
| --- | --- | --- | --- | --- |
| CCCS(=O)(=O)Nc1c(F)ccc(C(=O)c2c[nH]c3ncc(-c4cnc(OC)nc4C)cc23)c1F [Example 8] | + (10 ≥ IC50(off-target)/IC50(MKK4) > 3) | +++ (IC50(off-target)/IC50(MKK4) > 100) | < 100 | ++ (100 ≥ IC50(off-target)/IC50(MKK4) > 10) |
| CCCS(=O)(=O)Nc1c(F)ccc(C(=O)c2c[nH]c3ncc(-c4cnc(C5CC5)nc4SC)cc23)c1F [Example 12] | ++ (100 ≥ IC50(off-target)/IC50(MKK4) > 10) | +++ (IC50(off-target)/IC50(MKK4) > 100) | 100 to 1000 | ++ (100 ≥ IC50(off-target)/IC50(MKK4) > 10) |
| O=C(c1c(F)cc(F)c(NS(=O)(=O)Cc2ccccc2)c1F)c1c[nH]c2ncc(-c3cnc(C4CC4)nc3)cc12 [Example 14] | ++ (100 ≥ IC50(off-target)/IC50(MKK4) > 10) | +++ (IC50(off-target)/IC50(MKK4) > 100) | < 100 | ++ (100 ≥ IC50(off-target)/IC50(MKK4) > 10) |
| CCCS(=O)(=O)Nc1c(F)ccc(C(=O)c2c[nH]c3ncc(-c4cnc(OCC(C)(C)C)nc4)cc23)c1F [Example 13] | + (10 ≥ IC50(off-target)/IC50(MKK4) > 3) | + (10 ≥ IC50(off-target)/IC50(MKK4) > 3) | > 10000 | + (10 ≥ IC50(off-target)/IC50(MKK4) > 3) |
| CCCS(=O)(=O)Nc1c(F)ccc(C(=O)c2c[nH]c3ncc(-c4cnc(C)nc4C)cc23)c1F [Example 10] | +++ (IC50(off-target)/IC50(MKK4) > 100) | +++ (IC50(off-target)/IC50(MKK4) > 100) | < 100 | +++ (IC50(off-target)/IC50(MKK4) > 100) |
| CCCS(=O)(=O)Nc1c(F)ccc(C(=O)c2c[nH]c3ncc(-c4ccc(P(C)(C)=O)cc4)cc23)c1F [Example 4] | ++ (100 ≥ IC50(off-target)/IC50(MKK4) > 10) | +++ (IC50(off-target)/IC50(MKK4) > 100) | < 100 | ++ (100 ≥ IC50(off-target)/IC50(MKK4) > 10) |
| CCCS(=O)(=O)Nc1c(F)ccc(C(=O)c2c[nH]c3ncc(-c4cnc(C5CC5)nc4C)cc23)c1F [Example 11] | +++ (IC50(off-target)/IC50(MKK4) > 100) | +++ (IC50(off-target)/IC50(MKK4) > 100) | < 100 | +++ (IC50(off-target)/IC50(MKK4) > 100) |
| CCCS(=O)(=O)Nc1c(F)ccc(C(=O)c2c[nH]c3ncc(-c4cnc(C5CCCC5)nc4)cc23)c1F [Example 6] | ++ (100 ≥ IC50(off-target)/IC50(MKK4) > 10) | +++ (IC50(off-target)/IC50(MKK4) > 100) | 1000 to 10000 | +++ (IC50(off-target)/IC50(MKK4) > 100) |
| CCCS(=O)(=O)Nc1c(F)cc(F)c(C(=O)c2c[nH]c3ncc(-c4cnc(C5CC5)nc4)cc23)c1F [Example 7] | +++ (IC50(off-target)/IC50(MKK4) > 100) | +++ (IC50(off-target)/IC50(MKK4) > 100) | < 100 | +++ (IC50(off-target)/IC50(MKK4) > 100) |
| CCCS(=O)(=O)Nc1c(F)ccc(C(=O)c2c[nH]c3ncc(-c4cncnc4C)cc23)c1F [Example 9] | ++ (100 ≥ IC50(off-target)/IC50(MKK4) > 10) | +++ (IC50(off-target)/IC50(MKK4) > 100) | < 100 | +++ (IC50(off-target)/IC50(MKK4) > 100) |
| CCCS(=O)(=O)Nc1c(F)ccc(C(=O)c2c[nH]c3ncc(-c4cnc(C5CCC5)nc4)cc23)c1F [Example 5] | +++ (IC50(off-target)/IC50(MKK4) > 100) | +++ (IC50(off-target)/IC50(MKK4) > 100) | 100 to 1000 | +++ (IC50(off-target)/IC50(MKK4) > 100) |
| CCCS(=O)(=O)Nc1c(F)ccc(C(=O)c2c[nH]c3ncc(-c4ccc(C(=O)NOCCO)cc4)cc23)c1F [Example 3, 4-(3-(2,4-difluoro-3-(propylsulfonamido)benzoyl)-1H-pyrrolo[2,3-b]pyridin-5-yl)-N-(2-hydroxyethoxy)benzamide] | ++ (100 ≥ IC50(off-target)/IC50(MKK4) > 10) | +++ (IC50(off-target)/IC50(MKK4) > 100) | < 100 | ++ (100 ≥ IC50(off-target)/IC50(MKK4) > 10) |
